Results taken from patent US20120040930A1, “TETRACYCLIC TERPENE SERIES COMPOUNDS, METHODS FOR PREPARING SAME, USES THEREOF AS MEDICINES AND PHARMACEUTICAL COMPOUNDS CONTAINING SAME” (priority 2005, published 2012).

molecular target: T1, acetylcholinesterase (AChE) isolated from Electrophorus electricus (Electrophorus electricus, UniProt O42275); experiment: biochemical; conditions: AChE IC50
T1 construct: AChE isolated from Electrophorus electricus; from tissue
T1 sequence (O42275 24-633): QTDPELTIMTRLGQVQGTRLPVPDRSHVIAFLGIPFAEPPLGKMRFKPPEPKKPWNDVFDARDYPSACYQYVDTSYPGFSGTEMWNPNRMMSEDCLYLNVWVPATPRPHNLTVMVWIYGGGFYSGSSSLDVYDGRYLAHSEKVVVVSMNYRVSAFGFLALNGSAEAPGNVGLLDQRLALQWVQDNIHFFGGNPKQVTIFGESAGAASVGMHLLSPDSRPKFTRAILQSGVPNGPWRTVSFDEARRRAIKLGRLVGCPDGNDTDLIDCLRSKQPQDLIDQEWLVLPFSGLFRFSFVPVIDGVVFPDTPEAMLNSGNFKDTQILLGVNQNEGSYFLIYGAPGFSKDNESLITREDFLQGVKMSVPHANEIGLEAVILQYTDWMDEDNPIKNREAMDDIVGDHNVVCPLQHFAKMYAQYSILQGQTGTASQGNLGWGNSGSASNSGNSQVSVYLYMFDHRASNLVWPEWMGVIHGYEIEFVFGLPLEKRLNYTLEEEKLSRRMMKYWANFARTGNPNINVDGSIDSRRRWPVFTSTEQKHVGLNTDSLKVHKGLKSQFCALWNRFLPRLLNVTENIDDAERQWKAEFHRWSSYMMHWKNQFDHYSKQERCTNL

Molecule	IC50
CC(C)C(=O)N[C@H]1CCC23C[C@]24C(=O)C[C@]2(C)[C@@H]([C@H](C)N(C)C)[C@H](O)C[C@@]2(C)[C@@H]4CC[C@H]3[C@]1(C)CN (stereo partly drawn) [Compound 49, (20S)-20-dimethylamino-3β-(isobutyrylamino)-9,19-cyclo-4α-aminomethyl-4β,14α-dimethyl-5α,9β-pregnan-16α-ol-11-one]	1.34 µM
CC(C)C1=NC2CCC34C[C@]35C(=O)C[C@]3(C)[C@@H]([C@H](C)N(C)C)[C@H](O)C[C@@]3(C)[C@@H]5CC[C@H]4[C@]2(C)CN1 (stereo partly drawn) [Compound 51, (20S)-20-dimethylamino-9,19-cyclo-4β,14α-dimethyl-(2-isopropyl-5β-methyl-1,4,5,6-tetrahydro-pyrimidin-5-yl)-5α,9β-pregnan-16α-ol-11-one]	0.018 µM
CC[C@H](C)C(=O)N[C@H]1CC=C2C[C@H]3C(=O)C[C@]4(C)[C@@H]([C@H](C)N(C)C)[C@H](OC(C)=O)C[C@@]4(C)[C@@H]3CC[C@H]2[C@]1(C)CO [Compound 65]	7.94 µM

same assay, conditions: AChE isolated from Electrophorus electricus; read-out: AChE IC50

Molecule	IC50
CC(C)C(=O)N[C@H]1CCC23C[C@]24C(=O)C[C@]2(C)[C@@H]([C@H](C)N(C)C)[C@H](OC(=O)C(C)(C)C)C[C@@]2(C)[C@@H]4CC[C@H]3[C@]1(C)CNCc1ccccc1 (stereo partly drawn) [Compound 47, (20S)-3β-isobutyrylamino-20-dimethylamino-9,19-cyclo-4α-benzylaminomethyl-4β,14α-dimethyl-16α-pivalyl-5α,9β-pregnan-11-one]	20.1 µM
CC(C)C(=O)NC1CCC23C[C@]24C(=O)C[C@]2(C)[C@@H]([C@H](C)N(C)C)[C@H](OC(=O)C(C)(C)C)C[C@@]2(C)[C@@H]4CC[C@H]3[C@]1(C)CN (stereo partly drawn) [Compound 50, (20S)-3β-isobutyrylamino-20-dimethylamino-9,19-cyclo-4α-aminomethyl-4β,14α-dimethyl-16α-pivalyl-5α,9β-pregnan-11-one]	1.33 µM
CC(C)C1=NC2CCC34C[C@]35C(=O)C[C@]3(C)[C@@H]([C@H](C)N(C)C)[C@H](OC(=O)C(C)(C)C)C[C@@]3(C)[C@@H]5CC[C@H]4[C@]2(C)CN1 (stereo partly drawn) [Compound 52, (20S)-20-dimethylamino-9,19-cyclo-4β,14α-dimethyl-16α-pivalyl-(2′-isopropyl-1′/3′,3,29-tetrahydropyrimidine)-5α,9β-pregnan-11-one]	0.029 µM
CC(C)C(=O)N[C@H]1CCC23C[C@]24C(=O)C[C@]2(C)[C@@H]([C@H](C)N(C)C)[C@H](OC(=O)C(C)(C)C)C[C@@]2(C)[C@@H]4CC[C@H]3[C@]1(C)/C=N/C([Si](C)(C)C)[Si](C)(C)C (stereo partly drawn) [Compound 54, (20S)-3β-isobutyrylamino-20-dimethylamino-9,19-cyclo-4β,14α-dimethyl-4α-(bis-(trimethylsilanyl)methylimino)methyl-16α-pivalyl-5α,9β-pregnan-11-one]	> 100 µM
CC(C)C(=O)N[C@H]1CCC23C[C@]24C(=O)C[C@]2(C)[C@@H]([C@H](C)N(C)C)[C@H](O)C[C@@]2(C)[C@@H]4CC[C@H]3[C@]1(C)CNC([Si](C)(C)C)[Si](C)(C)C (stereo partly drawn) [Compound 55, (20S)-3β-isobutyrylamino-20-dimethylamino-9,19-cyclo-4β,14α-dimethyl-4α-(bis-(trimethylsilanyl)methylamino)methyl-5α,9β-pregnan-16α-ol-11-one]	> 100 µM
CC(C)C(=O)N[C@H]1CCC23C[C@]24C(=O)C[C@]2(C)[C@@H]([C@H](C)N(C)C)[C@H](OC(=O)C(C)(C)C)C[C@@]2(C)[C@@H]4CC[C@H]3[C@]1(C)CNC([Si](C)(C)C)[Si](C)(C)C (stereo partly drawn) [Compound 56, (20S)-3β-isobutyrylamino-20-dimethylamino-9,19-cyclo-4β,14α-dimethyl-4α-(bis-(trimethylsilanyl)methylamino)methyl-16α-pivalyl-5α,9β-pregnan-11-one]	> 100 µM
CC(C)C(=O)N[C@H]1CCC23C[C@]24C(=O)C[C@]2(C)[C@@H]([C@H](C)N(C)C)[C@H](O[Si](C)(C)C(C)(C)C)C[C@@]2(C)[C@@H]4CC[C@H]3[C@]1(C)CNC([Si](C)(C)C)[Si](C)(C)C (stereo partly drawn) [Compound 57, (20S)-3β-isobutyrylamino-20-dimethylamino-9,19-cyclo-4β,14α-dimethyl-4α-(bis-(trimethylsilanyl)methylamino)methyl-16α-(tert-butyl-dimethyl-silanyloxy)-5α,9β-pregnan-11-one]	> 100 µM
CC[C@H](C)C(=O)N[C@H]1CCC23C[C@]24C(=O)C[C@]2(C)[C@@H]([C@H](C)N(C)C)[C@H](OC(C)=O)C[C@@]2(C)[C@@H]4CC[C@H]3[C@]1(C)C=O (stereo partly drawn) [Compound 59, (20S)-16α-acetyl-3β-((S)-2-methylbutyrylamino)-20-dimethylamino-9,19-cyclo-4α-formyl-4β,14α-dimethyl-5α,9β-pregnan-11-one]	> 100 µM
CC[C@H](C)C(=O)N[C@H]1CCC23C[C@]24C(=O)C[C@]2(C)[C@@H]([C@H](C)N(C)C)[C@H](O)C[C@@]2(C)[C@@H]4CC[C@H]3[C@]1(C)C=O (stereo partly drawn) [Compound 60, (20S)-20-dimethylamino-3β-((S)-2-methylbutyrylamino)-9,19-cyclo-4α-formyl-4β,14α-dimethyl-5α,9β-pregnan-16α-ol-11-one]	> 100 µM
CC[C@H](C)C(=O)N[C@H]1CCC23C[C@]24C(=O)C[C@]2(C)[C@@H]([C@H](C)N(C)C)[C@H](O)C[C@@]2(C)[C@@H]4CC[C@H]3[C@]1(C)/C=N/Cc1ccccc1 (stereo partly drawn) [Compound 61, (20S)-20-dimethylamino-3β-((S)-2-methylbutyrylamino)-9,19-cyclo-4α-benzyliminomethyl-4β,14α-dimethyl-5α,9β-pregnan-16α-ol-11-one]	> 100 µM
CC[C@H](C)C(=O)N[C@H]1CCC23C[C@]24C(=O)C[C@]2(C)[C@@H]([C@H](C)N(C)C)[C@H](O)C[C@@]2(C)[C@@H]4CC[C@H]3[C@]1(C)CNCc1ccccc1 (stereo partly drawn) [Compound 62, (20S)-20-dimethylamino-3β-((S)-2-methylbutyrylamino)-9,19-cyclo-4α-benzylaminomethyl-4β,14α-dimethyl-5α,9β-pregnan-16α-ol-11-one]	≥ 100 µM
CC[C@H](C)C(=O)N[C@H]1CCC23C[C@]24C(=O)C[C@]2(C)[C@@H]([C@H](C)N(C)C)[C@H](O)C[C@@]2(C)[C@@H]4CC[C@H]3[C@]1(C)CN (stereo partly drawn) [Compound 63, (20S)-20-dimethylamino-3β-((S)-2-methylbutyrylamino)-9,19-cyclo-4α-aminomethyl-4β,14α-dimethyl-5α,9β-pregnan-16α-ol-11-one]	0.637 µM
CCC(C)C1=NC2CCC34C[C@]35C(=O)C[C@]3(C)[C@@H]([C@H](C)N(C)C)[C@H](O)C[C@@]3(C)[C@@H]5CC[C@H]4[C@]2(C)CN1 (stereo partly drawn) [Compound 64, (20S)-20-dimethylamino-9,19-cyclo-4β,14α-dimethyl-(2-(S)-sec-butyl-5β-methyl-1,4,5,6-tetrahydro-pyrimidin-5-yl)-5α,9β-pregnan-16α-ol-11-one]	0.014 µM
CC[C@H](C)C(=O)N[C@H]1CC=C2C[C@H]3C(=O)C[C@]4(C)[C@@H]([C@H](C)N(C)C)[C@H](OC(C)=O)C[C@@]4(C)[C@@H]3CC[C@H]2[C@]1(C)C=O [Compound 66]	> 100 µM
CC[C@H](C)C(=O)N[C@H]1CC=C2C[C@H]3C(=O)C[C@]4(C)[C@@H]([C@H](C)N(C)C)[C@H](O)C[C@@]4(C)[C@@H]3CC[C@H]2[C@]1(C)C=O [Compound 67, (20S)-10(9->1)-abeo-20-dimethylamino-3-((S)-2-methylbutyrylamino)-4α-formyl-4β,14α-dimethyl-5α,9β-pregn-1(10)-en-16α-ol-11-one]	> 100 µM
CC[C@H](C)C(=O)N[C@H]1CC=C2C[C@H]3C(=O)C[C@]4(C)[C@@H]([C@H](C)N(C)C)[C@H](O)C[C@@]4(C)[C@@H]3CC[C@H]2[C@]1(C)CNCc1ccccc1 [Compound 69, (20S)-10(9->1)abeo-20-dimethylamino-3β-((S)-2-methylbutyrylamino)-4α-benzylaminomethyl-4β,14α-dimethyl-5α,9β-pregn-1(10)-en-16α-ol-11-one]	> 100 µM
CC(C)C(=O)N[C@H]1CC[C@]23CC24C(=O)C[C@]2(C)[C@@H]([C@H](C)N(C)C)[C@H](O)C[C@@]2(C)[C@@H]4CC[C@H]3[C@]1(C)CS (stereo partly drawn) [Compound 76]	43 µM
(20S)-3β-isobutyrylamino-20-methylamino-9,19-cyclo-4α-benzylaminomethyl-4β,14α-dimethyl-16α-pivalyl-5α,9β-pregnan-11-one [Compound 48]	17.5 µM

same assay, conditions: read-out: AChE IC50

Molecule	IC50
CC[C@H](C)C(=O)N[C@H]1CC=C2C[C@H]3C(=O)C[C@]4(C)[C@@H]([C@H](C)N(C)C)[C@H](O)C[C@@]4(C)[C@@H]3CC[C@H]2[C@]1(C)/C=N/Cc1ccccc1 [Compound 68, (20S)-10(9->1)-abeo-20-dimethylamino-3-((S)-2-methylbutyrylamino)-4α-benzyliminomethyl-4β,14α-dimethyl-5α,9β-pregn-1(10)-en-16α-ol-11-one]	0.78 µM
CC[C@H](C)C(=O)N[C@H]1CC=C2C[C@H]3C(=O)C[C@]4(C)[C@@H]([C@H](C)N(C)C)[C@H](O)C[C@@]4(C)[C@@H]3CC[C@H]2[C@]1(C)CN [Compound 70, (20S)-10(9->1)-abeo-20-dimethylamino-3-((S)-2-methylbutyrylamino)-4α-aminomethyl-4β,14α-dimethyl-5α,9β-pregn-1(10)-en-16α-ol-11-one]	0.368 µM
CC[C@H](C)C1=N[C@H]2CC=C3C[C@H]4C(=O)C[C@]5(C)[C@@H]([C@H](C)N(C)C)[C@H](O)C[C@@]5(C)[C@@H]4CC[C@H]3[C@]2(C)CN1 [Compound 71, (20S)-10(9->1)-abeo-20-dimethylamino-4β,14α-dimethyl-(2-(S)-sec-butyl-5β-methyl-1,4,5,6-tetrahydro-pyrimidin-5-yl)-5α,9β-pregnan-1(10)-en-16α-ol-11-one]	0.028 µM
